This passage reports Ki results from patent US7511055B2, “Naphthyridin derivatives” (Hoffmann-La Roche Inc., priority 2005, dated 2009).

The assay addresses T1, human mGlu 5a receptor (Homo sapiens, UniProt P41594).
T1 construct: expressed in transfected cells; host or cells: EBNA cells (transient transfection); cell membrane homogenates
The assay can be described thus: [3H]MPEP competition binding on membranes of EBNA cells transfected with human mGlu 5a receptor. The conditions noted are these: competition with [3H]MPEP (2 nM), 1 h at 4° C., Ki=IC50/[1+L/Kd]. As for the experimental part: The pharmacological activity of the compounds was tested using the following method: For binding experiments, cDNA encoding human mGlu 5a receptor was transiently transfected into EBNA cells using a procedure described by Schlaeger and Christensen [Cytotechnology 15:1-13 (1998)]. Cell membrane homogenates were stored at −80° C. until the day of assay where upon they were thawed and resuspended and polytronised in 15 mM Tris-HCl, 120 mM NaCl, 100 mM KCl, 25 mM CaCl2, 25 mM MgCl2 binding buffer at pH 7.4 to a final assay concentration of 20 μg protein/well.
Saturation isotherms were determined by addition of twelve [^3H]MPEP concentrations (0.04-100 nM) to these membranes (in a total volume of 200 μl) for 1 h at 4° C. Competition experiments were performed with a fixed concentration of [^3H]MPEP (2 nM) and IC50 values of test compounds evaluated using 11 concentrations (0.3-10,000 nM). Incubations were performed for 1 h at 4° C.
At the end of the incubation, membranes were filtered onto unifilter (96-well white microplate with bonded GF/C filter preincubated 1 h in 0.1% PEI in wash buffer, Packard BioScience, Meriden, Conn.) with a Filtermate 96 harvester (Packard BioScience) and washed 3 times with cold 50 mM Tris-HCl, pH 7.4 buffer. Nonspecific binding was measured in the presence of 10 μM MPEP. The radioactivity on the filter was counted (3 min) on a Packard Top-count microplate scintillation counter with quenching correction after addition of 45 μl of microscint 40 (Canberra Packard S.A., Zürich, Switzerland) and shaking for 20 min.
The inhibition (antagonists) curves were fitted with a four parameter logistic equation giving IC50, and Hill coefficient using iterative non linear curve fitting software (Xcel fit).
For binding experiments the Ki values of the compounds tested are given. The Ki value is defined by the following formula: Ki=IC50/[1+L/Kd] in which the IC50 values are those concentrations of the compounds tested which cause 50% inhibition of the competing radioligand ([^3H]MPEP). L is the concentration of radioligand used in the binding experiment and the Kd value of the radioligand is empirically determined for each batch of membranes prepared.

Broadly, the Ki is the dissociation constant of the complex between target and ligand, obtained from inhibition or displacement.

T1 sequence (P41594 21-1180 isoform P41594-2 limits assumed): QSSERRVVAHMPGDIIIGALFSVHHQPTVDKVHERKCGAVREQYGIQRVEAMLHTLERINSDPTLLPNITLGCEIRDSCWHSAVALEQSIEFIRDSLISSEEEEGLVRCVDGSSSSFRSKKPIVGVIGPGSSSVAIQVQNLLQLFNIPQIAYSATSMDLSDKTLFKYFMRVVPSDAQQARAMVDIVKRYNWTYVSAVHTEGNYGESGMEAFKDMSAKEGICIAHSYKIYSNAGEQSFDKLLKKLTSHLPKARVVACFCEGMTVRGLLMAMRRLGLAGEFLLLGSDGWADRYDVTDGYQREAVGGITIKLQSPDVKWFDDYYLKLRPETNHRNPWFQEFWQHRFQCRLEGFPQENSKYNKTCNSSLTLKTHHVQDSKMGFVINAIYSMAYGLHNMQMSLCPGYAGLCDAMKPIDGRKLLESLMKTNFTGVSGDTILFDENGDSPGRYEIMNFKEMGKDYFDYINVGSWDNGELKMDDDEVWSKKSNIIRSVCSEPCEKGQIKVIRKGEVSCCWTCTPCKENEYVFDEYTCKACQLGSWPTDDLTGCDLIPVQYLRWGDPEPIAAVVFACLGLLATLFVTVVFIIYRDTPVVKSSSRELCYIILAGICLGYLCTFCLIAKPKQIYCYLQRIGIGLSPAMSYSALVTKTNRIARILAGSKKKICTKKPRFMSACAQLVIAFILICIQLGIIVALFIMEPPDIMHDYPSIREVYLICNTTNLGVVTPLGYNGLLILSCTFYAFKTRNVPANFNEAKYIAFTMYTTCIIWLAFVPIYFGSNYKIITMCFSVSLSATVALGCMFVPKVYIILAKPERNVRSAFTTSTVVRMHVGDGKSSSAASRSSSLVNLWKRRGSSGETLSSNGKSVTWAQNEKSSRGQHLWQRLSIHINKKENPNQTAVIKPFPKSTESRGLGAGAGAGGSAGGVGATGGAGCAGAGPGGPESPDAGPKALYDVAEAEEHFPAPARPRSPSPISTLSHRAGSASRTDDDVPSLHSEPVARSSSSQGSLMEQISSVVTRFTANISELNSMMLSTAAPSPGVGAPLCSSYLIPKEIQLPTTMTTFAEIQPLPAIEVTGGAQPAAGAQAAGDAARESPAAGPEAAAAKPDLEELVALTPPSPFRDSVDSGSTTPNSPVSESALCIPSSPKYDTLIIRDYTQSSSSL

Take `Cc1cccc(Nc2nccc3cccnc23)n1` [Example 1, (6-Methyl-pyridin-2-yl)-[1,7]naphthyridin-8-yl-amine]: the inhibition constant Ki is 25 nM.

Consider `Clc1cccc(Nc2nccc3cccnc23)c1` [Example 2, (3-Chloro-phenyl)-[1,7]naphthyridin-8-yl-amine], for which the inhibitory constant (Ki) was 89 nM.

On to `Cc1csc(Nc2nccc3cccnc23)n1` [Example 5, (4-Methyl-thiazol-2-yl)-[1,7]naphthyridin-8-yl-amine], for which the inhibition constant Ki is 62 nM.

For `Cc1cccc(Nc2ncc(-c3cccnc3)c3cccnc23)n1` [Example 6, (6-Methyl-pyridin-2-yl)-(5-pyridin-3-yl-[1,7]naphthyridin-8-yl)-amine], the inhibitory constant (Ki) is 33 nM.

On to `Clc1cccc(Nc2ncc(-c3cccnc3)c3cccnc23)c1` [Example 7, (3-Chloro-phenyl)-(5-pyridin-3-yl-[1,7]naphthyridin-8-yl)-amine], for which the Ki was 18 nM.

In the case of `Clc1cc(Nc2ncc(-c3cccnc3)c3cccnc23)ccn1` [Example 8, (2-Chloro-pyridin-4-yl)-(5-pyridin-3-yl-[1,7]naphthyridin-8-yl)-amine], the Ki stood at 38 nM.

With `Cc1ccc(Nc2ncc(-c3cccnc3)c3cccnc23)nc1` [Example 9, (5-Methyl-pyridin-2-yl)-(5-pyridin-3-yl-[1,7]naphthyridin-8-yl)-amine], the inhibition constant (Ki) turned out to be 86 nM.

Turning to `Fc1ccc(Nc2ncc(-c3cccnc3)c3cccnc23)nc1` [Example 10, (5-Fluoro-pyridin-2-yl)-(5-pyridin-3-yl-[1,7]naphthyridin-8-yl)-amine], the Ki amounted to 19 nM.

On to `Clc1cccc(Nc2ncc(-c3ccc(Cl)nc3)c3cccnc23)c1` [Example 11, (3-Chloro-phenyl)-[5-(6-chloro-pyridin-3-yl)-[1,7]naphthyridin-8-yl]-amine], for which the Ki was found to be 8 nM.

Turning to `COc1ccc(-c2cnc(Nc3ccnc(Cl)c3)c3ncccc23)cn1` [Example 12, (2-Chloro-pyridin-4-yl)-[5-(6-methoxy-pyridin-3-yl)-[1,7]naphthyridin-8-yl]-amine], the Ki stood at 56 nM.

Turning to `Fc1cncc(-c2cnc(Nc3ccnc(Cl)c3)c3ncccc23)c1` [Example 14, (2-Chloro-pyridin-4-yl)-[5-(5-fluoro-pyridin-3-yl)-[1,7]naphthyridin-8-yl]-amine], the inhibition constant (Ki) stood at 66 nM.

As for `Fc1ccc(Nc2ncc(-c3cncc(F)c3)c3cccnc23)nc1` [Example 15, (5-Fluoro-pyridin-2-yl)-[5-(5-fluoro-pyridin-3-yl)-[1,7]naphthyridin-8-yl]-amine], the Ki was found to be 66 nM.

Regarding `COc1cncc(-c2cnc(Nc3ccc(F)cn3)c3ncccc23)c1` [Example 17, (5-Fluoro-pyridin-2-yl)-[5-(5-methoxy-pyridin-3-yl)-[1,7]naphthyridin-8-yl]-amine], the Ki was determined as 41 nM.

Turning to `Clc1cc(Nc2ncc(-c3cncnc3)c3cccnc23)ccn1` [Example 18, (2-Chloro-pyridin-4-yl)-(5-pyrimidin-5-yl-[1,7]naphthyridin-8-yl)-amine], the inhibition constant (Ki) came out at 41 nM.

As for `Fc1ccc(Nc2ncc(-c3cncnc3)c3cccnc23)nc1` [Example 19, (5-Fluoro-pyridin-2-yl)-(5-pyrimidin-5-yl-[1,7]naphthyridin-8-yl)-amine], the Ki amounted to 44 nM.

For `COc1cccc(-c2cnc(Nc3nc(C)cs3)c3nc(C)ccc23)c1` [Example 42, [5-(3-Methoxy-phenyl)-2-methyl-[1,7]naphthyridin-8-yl]-(4-methyl-thiazol-2-yl)-amine], the Ki is 56 nM.

In the case of `Cc1csc(Nc2ncc(-c3cccc(C(F)(F)F)c3)c3ccc(C)nc23)n1` [Example 43, (4-Methyl-thiazol-2-yl)-[2-methyl-5-(3-trifluoromethyl-phenyl)-[1,7]naphthyridin-8-yl]-amine], the inhibitory constant (Ki) was 51 nM.

As for `Cc1ccc2c(-c3cccc(F)c3)cnc(Nc3ccn(C)n3)c2n1` [Example 68, [5-(3-Fluoro-phenyl)-2-methyl-[1,7]naphthyridin-8-yl]-(1-methyl-1H-pyrazol-3-yl)-amine], the Ki is 38 nM.

Take `Cc1csc(Nc2ncc(-c3cncc(C(F)(F)F)n3)c3ccc(C)nc23)n1` [Example 81, (4-Methyl-thiazol-2-yl)-[2-methyl-5-(6-trifluoromethyl-pyrazin-2-yl)-[1,7]naphthyridin-8-yl]-amine]: the Ki was found to be 51 nM.
